Earlier results as cited in patent publication US10076471B2, “Antimicrobial denture” (University of Dammam, priority 2016, dated 2018).
≈ marks a conversion by molar mass, not a printed value.

System: Candida
Conditions: against Candida

For COC1=CC(=O)c2ccccc2C1=O [Lawsone methyl ether, 2-methoxy-1,4-napthoquinone], the minimal fungicidal concentration is given as 1.25 µg/mL (≈ 6.64 µM).
